Experimental data from paper PMC7724566, “Prospects for Clinical Development of Stat5 Inhibitor IST5-002: High Transcriptomic Specificity in Prostate Cancer and Low Toxicity In Vivo” (Cancers, 2020).
pIC50: −log10 of the molar value.

What was measured:
Stat5 = Stat5 phosphorylation in K562 cells (immunoblot); format: cell-based, human; settings: 4 days
Description: In order to evaluate whether the phosphate group of IST5 is critical for IST5 activity in cell-based assays, we compared the potency of IST5 (Figure 4A) to that of IST5-M (IST5 without the phosphate group) (Figure 4B) in inhibiting phosphorylation of Stat5 in PC and CML cells. CML (K562) cells and PC (CWR22Rv1) cells were cultured for 4 days with increasing concentrations of IST5 and IST5-M (Figure 4C,D). […] Collectively, these finding indicate that IST5 and IST5-M have similar efficacies in inhibiting phosphorylation of Stat5 in both CML and PC cells.
Figure 4 IST5 and the IST5-derivative lacking the phosphate group (IST5-M), both, inhibit Stat5 phosphorylation in CML and prostate cancer cell line with high efficacy. (A), chemical structure of IST5-002 (IST5). (B), chemical structure of IST5-M (IST5 without the phosphate group. (C), IST5 and IST5-M both inhibit Stat5 phosphorylation in CML cells (K562) with high efficacy. K562 cells were treated with IST5 and IST5-M for 4 days at the concentrations indicated. Whole cell lysates (WCL) were immunoblotted with anti-pYStat5 mAb, anti-Stat5 mAb and anti-actin mAb as loading control. (D), IST5 and IST5-M, both, decrease Stat5 phosphorylation in PC cells (CWR22Rv1). CWR22Rv1 cells were treated with increasing concentrations of IST5 and IST5-M for 4 days. Stat5 was immunoprecipitated (IP) followed by immunoblotting (WB) with anti-pYStat5 mAb and anti-Stat5 mAb. Whole cell lysates (WCL) were immunoblotted with anti-actin mAb as loading control.
Cell pellets were solubilized in the lysis buffer (10 mM Tris-HCl (pH 7.6), 5 mM EDTA, 50 mM sodium chloride, 30 mM sodium pyrophosphate, 50 mM sodium fluoride, 1 mM sodium orthovanadate, 1% Triton X-100, 1 mM phenylmethylsulfonyl fluoride, 5 µg/mL aprotinin, 1 µg/mL pepstatin A and 2 µg/mL leupeptin), and protein concentrations of clarified cell lysates were determined by a simplified Bradford method (Bio-Rad, Hercules, CA, USA). The whole cell lysates were immunoprecipitated with polyclonal antibodies (Table S1) followed by incubation with protein A-Sepharose beads (GE Healthcare, Chicago, IL, USA). The cell lysates and immunoprecipitated proteins were separated on 4–12% SDS-PAGE (Life Technologies, Brown Deer, WI, USA) and transferred electrophoretically to polyvinylidene fluoride membrane (Millipore). For immunoblotting, blocking buffer was tris-buffered saline and tween 20 (TBST, 0.15 M NaCl; 0.1% Tween 20; 50 mM Tris, pH 8.0) with 3% bovine serum albumin (BSA). The immunoreaction with the specific antibodies (Table S1) was detected by horseradish peroxidase-conjugated secondary antibodies followed by enhanced chemiluminescence (GE Healthcare).

CWR22Pc cells = assay: RNA-seq transcriptome, IST5 vs. genetic Stat5 knockdown; format: cell-based, human; settings: 3 days
Excerpt: In order to evaluate the potential of IST5 for further optimization for clinical development, we compared the IST5-induced transcriptome to that of Stat5 genetic knockdown in PC cells. Stat5 expression was inhibited by lenti-viral expression of shStat5 or shCtrl in CWR22Pc cells for 3 days (Figure 2A). CWR22Pc cells were chosen as the model system because the cell line expresses both Stat5 and androgen receptor and mimics the course of disease progression in PC patient. When grown in mice as xenograft tumors, CWR22Pc cells form androgen-dependent tumors which regress in response to androgen deprivation but later recur as Castrate-Resistant Prostate Cancer (CRPC) tumors. In parallel wells, CWR22Pc cells were treated with IST5 or vehicle for 3 days. We performed RNA-seq to profile the gene expression changes and received an average of 22.4 million paired-end clean reads from each sample (Table S5). […] Most importantly, the similarity between the transcriptomes regulated by shStat5 vs. IST5 was remarkably high, with Pearson correlation coefficient ranging from 0.98–0.99 (Figure 2C).
Figure 2 IST5 show high transcriptional specificity in prostate cancer cells. […]
Total RNA of each replicate sample was isolated using RNeasy Micro Kit (QIAGEN, Valencia, CA, USA) and reverse transcribed with Super-Script III Reverse Transcriptase (Life Technologies, Brown Deer, WI, USA) following the manufacturer’s instructions. […] RNA quality was assessed by Agilent Bioanalyzer 2100 (Agilent, Santa Clara, CA, USA), and RNA integrity number (RIN) ≥7.5 was qualified for subsequent RNA-seq analysis.
We performed RNA-seq to evaluate the transcriptomes regulated by IST5 vs. genetic knockdown (lenti-shStat5) of Stat5 with corresponding controls (vehicle or lenti-shCtrl). […] Sequencing data (fastq files) were quantified with a software tool Salmon (version 1.1.0). […] Transcripts with less than 10 median read-counts were filtered out. […] Statistical significance was determined at a FDR threshold <0.01. […]

[1] = 6 µM, FDR <0.01, fold change >2 or <−2

Compound: O=P(O)(O)OCC1OC(n2cnc3c(NCc4ccccc4)ncnc32)C(O)C1O (centres unmarked) [IST5]
- inhibition of Stat5 phosphorylation (Stat5; 2 µM, K562 cells): 75–90%
- pIC50 (Stat5; read-out: IC50, inhibition of Stat5 phosphorylation, K562 CML cells): ~5.96
- transcripts down-regulated (CWR22Pc cells; [1]): 765
- transcripts upregulated (CWR22Pc cells; [1]): 324
- Pearson correlation coefficient of transcriptomes regulated by shStat5 vs. IST5 (CWR22Pc cells; IST5 6 µM): 0.98–0.99
